{
  "source": "patent US20260053811A1",
  "about": "“METHODS OF TREATING HYPERTENSION IN OBESE SUBJECTS” (Mineralys Therapeutics, Inc., priority 2022, published 2026)",
  "test_system": "hypertensive subjects",
  "experiment": "Seated automated office blood pressure (AOBP) in randomized, placebo-controlled, dose-ranging study",
  "assay_type": "in vivo, human",
  "conditions": "100 mg QD, FAS; for Seated AOBP DBP change from baseline (CFB), Mean / Seated AOBP DBP, Mean / Seated AOBP SBP change from baseline (CFB), Mean / Seated AOBP SBP, Mean: Part 2",
  "method": "A randomized, double-blinded, placebo-controlled, dose-ranging, multicenter study was conducted to evaluate the effect of orally administered Compound A HBr on blood pressure for the treatment of hypertension in male and female subjects ≥18 years of age.\nThe study consists of two parts. For enrollment into Part 1 of the study, a subject's value of plasma renin activity (PRA) must be ≤1 ng/mL/h based on morning measurement. If the value of PRA >1 ng/mL/h based on morning measurement, then subjects may be eligible to enter Part 2 of the study.\nFor Part 1, 163 enrolled subjects ≥18 years of age were randomized into 6 equal treatment groups (1:1:1:1:1:1) to 12.5 mg BID, 25 mg BID, 12.5 mg QD, 50 mg QD, 100 mg QD, or placebo. After a review of interim clinical data, the 2 lowest dose levels (12.5 mg QD and 12.5 mg BID) were stopped for future randomization due to a lack of consistent meaningful reduction of blood pressure, but the patients randomized to that point remained in the study through completion. Thus, after the review of interim clinical data, subjects were randomized into 4 equal treatment groups (1:1:1:1) to 25 mg BID, 50 mg QD, 100 mg QD, or placebo.\nFor Part 2, 36 enrolled subjects ≥18 years of age were randomized (5:1) to either 100 mg QD Compound A HBr or placebo such that the Compound A HBr treatment group consisted of approximately 30 subjects and the placebo treatment group will consist of approximately 6 subjects.\nSubjects orally administered the assigned study drug (Compound A HBr or placebo) according to the assigned dosing regimen for 8 weeks beginning on Study Day 1. All subjects in Part 1 (regardless of dosing group) received BID dosing to preserve the integrity of the blind; active drug is administered as the morning dose for all QD dose groups. Subjects returned to the research facility or were seen by the clinical investigator or approved home health care professional at the end of Study Weeks 1, 2, 3, 4, 5, 6, 7, and 8 (±2 days) for protocol-defined efficacy and safety assessments and procedures, assessment of adverse events (AEs), and confirmation of compliance with study drug usage. Subjects also completed a telephone visit and blood pressure (BP) check at home approximately 3 days post last dose of study drug. Subjects attended up to 14 full clinic visits, including a pre-Screening visit, a Screening/start of Placebo Run-in visit, a second visit during Placebo Run-in, a clinic visit to initiate the ABPM procedure, a Randomization visit, 8 weekly visits during double-blind treatment, and an end-of-study visit scheduled 4 weeks after the last study treatment for final efficacy and safety assessments.\nAn automated oscillometric sphygmomanometer device was used to measure the subjects' systolic and diastolic blood pressure in office after approximately 5 minutes of rest in the seated position.\nThe primary endpoint is the change in office-measured (mean of last 2 of 5 unattended measurements using an automated oscillometric sphygmomanometer device after approximately 5 minutes of rest in the seated position) systolic blood pressure (SBP) from baseline to the end of Study Week 8.\nSecondary endpoints of this study were: • (a) Change in 24-hour ambulatory blood pressure monitoring (ABPM) parameters (systolic and diastolic) from baseline to the end of Study Week 7. • (b) Change in office-measured SBP from baseline to the end of Study Weeks 1, 2, 3, 4, 5, 6, and 7. • (c) Change in office-measured diastolic blood pressure (DBP) from baseline to the end of Study Weeks 1, 2, 3, 4, 5, 6, 7, and 8. • (d) Proportion of subjects who achieve office-measured BP of ≤130/80 mm Hg by the end of Study Week 8.",
  "data": [
    {"molecule": "CC(=O)N[C@H]1CC[C@H](NC(=O)CN2CCN(c3nncc(-c4ccc(C)cc4)n3)CC2)CC1", "note": "[Compound A HBr]", "values": [
      {"measurement": "Seated AOBP DBP change from baseline (CFB), Mean (SD)", "setting": "Week 4, Part 1", "result": "−6.36 (6.75) mmHg"},
      {"measurement": "Seated AOBP DBP, Mean (SD)", "setting": "Week 4, Part 1", "result": "71.60 (8.62) mmHg"},
      {"measurement": "Seated AOBP SBP change from baseline (CFB), Mean (SD)", "setting": "Week 4, Part 1", "result": "−14.60 (11.66) mmHg"},
      {"measurement": "Seated AOBP SBP, Mean (SD)", "setting": "Week 4, Part 1", "result": "129.76 (12.66) mmHg"},
      {"measurement": "Seated AOBP DBP change from baseline (CFB), Mean", "setting": "Week 4", "result": "−6.92", "unit": "mmHg"},
      {"measurement": "Seated AOBP DBP, Mean", "setting": "Week 4", "result": 71.36, "unit": "mmHg"},
      {"measurement": "Seated AOBP SBP change from baseline (CFB), Mean", "setting": "Week 4", "result": "−16.04", "unit": "mmHg"},
      {"measurement": "Seated AOBP SBP, Mean", "setting": "Week 4", "result": 125.44, "unit": "mmHg"},
      {"measurement": "Seated AOBP DBP change from baseline (CFB), Mean (SD)", "setting": "Week 5, Part 1", "result": "−5.36 (8.12) mmHg"},
      {"measurement": "Seated AOBP DBP, Mean (SD)", "setting": "Week 5, Part 1", "result": "72.60 (11.27) mmHg"},
      {"measurement": "Seated AOBP SBP change from baseline (CFB), Mean (SD)", "setting": "Week 5, Part 1", "result": "−13.40 (16.59) mmHg"},
      {"measurement": "Seated AOBP SBP, Mean (SD)", "setting": "Week 5, Part 1", "result": "130.96 (14.84) mmHg"},
      {"measurement": "Seated AOBP DBP change from baseline (CFB), Mean", "setting": "Week 5", "result": "−6.35", "unit": "mmHg"},
      {"measurement": "Seated AOBP DBP, Mean", "setting": "Week 5", "result": 71.31, "unit": "mmHg"},
      {"measurement": "Seated AOBP SBP change from baseline (CFB), Mean", "setting": "Week 5", "result": "−12.87", "unit": "mmHg"},
      {"measurement": "Seated AOBP SBP, Mean", "setting": "Week 5", "result": 127.92, "unit": "mmHg"},
      {"measurement": "Seated AOBP DBP change from baseline (CFB), Mean (SD)", "setting": "Week 6, Part 1", "result": "−3.33 (7.96) mmHg"},
      {"measurement": "Seated AOBP DBP, Mean (SD)", "setting": "Week 6, Part 1", "result": "74.77 (10.12) mmHg"},
      {"measurement": "Seated AOBP SBP change from baseline (CFB), Mean (SD)", "setting": "Week 6, Part 1", "result": "−6.62 (15.69) mmHg"},
      {"measurement": "Seated AOBP SBP, Mean (SD)", "setting": "Week 6, Part 1", "result": "138.73 (14.13) mmHg"},
      {"measurement": "Seated AOBP DBP change from baseline (CFB), Mean", "setting": "Week 6", "result": "−7.25", "unit": "mmHg"},
      {"measurement": "Seated AOBP DBP, Mean", "setting": "Week 6", "result": 70.65, "unit": "mmHg"},
      {"measurement": "Seated AOBP SBP change from baseline (CFB), Mean", "setting": "Week 6", "result": "−13.29", "unit": "mmHg"},
      {"measurement": "Seated AOBP SBP, Mean", "setting": "Week 6", "result": 127.58, "unit": "mmHg"},
      {"measurement": "Seated AOBP DBP change from baseline (CFB), Mean (SD)", "setting": "Week 7, Part 1", "result": "−4.12 (8.55) mmHg"},
      {"measurement": "Seated AOBP DBP, Mean (SD)", "setting": "Week 7, Part 1", "result": "73.48 (11.08) mmHg"},
      {"measurement": "Seated AOBP SBP change from baseline (CFB), Mean (SD)", "setting": "Week 7, Part 1", "result": "−11.04 (16.75) mmHg"},
      {"measurement": "Seated AOBP SBP, Mean (SD)", "setting": "Week 7, Part 1", "result": "134.32 (18.32) mmHg"},
      {"measurement": "Seated AOBP DBP change from baseline (CFB), Mean", "setting": "Week 7", "result": "−6.13", "unit": "mmHg"},
      {"measurement": "Seated AOBP DBP, Mean", "setting": "Week 7", "result": 71.61, "unit": "mmHg"},
      {"measurement": "Seated AOBP SBP change from baseline (CFB), Mean", "setting": "Week 7", "result": "−11.66", "unit": "mmHg"},
      {"measurement": "Seated AOBP SBP, Mean", "setting": "Week 7", "result": 128.75, "unit": "mmHg"},
      {"measurement": "LSM Δ from Placebo, change from baseline in seated AOBP SBP (MMRM)", "setting": "Week 8, Part 1", "result": "−7.81", "unit": "mmHg"},
      {"measurement": "LSM Δ with Placebo, seated AOBP DBP (MMRM)", "setting": "Week 8, Part 1", "result": "−4.11", "unit": "mmHg"},
      {"measurement": "Modelled (MMRM) LSM (SEM) change from baseline, seated AOBP DBP", "setting": "Week 8, Part 1", "result": "−5.75 (1.77) mmHg"},
      {"measurement": "Modelled (MMRM) LSM (SEM) change from baseline, seated AOBP SBP", "setting": "Week 8, Part 1", "result": "−11.92 (2.77) mmHg"},
      {"measurement": "Seated AOBP DBP change from baseline (CFB), Mean (SD)", "setting": "Week 8, Part 1", "result": "−5.46 (7.85) mmHg"},
      {"measurement": "Seated AOBP DBP, Mean (SD)", "setting": "Week 8, Part 1", "result": "73.00 (9.43) mmHg"},
      {"measurement": "Seated AOBP SBP change from baseline (CFB), Mean (SD)", "setting": "Week 8, Part 1", "result": "−14.08 (13.26) mmHg"},
      {"measurement": "Seated AOBP SBP, Mean (SD)", "setting": "Week 8, Part 1", "result": "131.28 (14.13) mmHg"},
      {"measurement": "Subjects with seated AOBP SBP/DBP ≤130/80 mmHg: No", "setting": "Week 8, Part 1", "result": "21 (70.0) n (%)"},
      {"measurement": "Subjects with seated AOBP SBP/DBP ≤130/80 mmHg: Yes", "setting": "Week 8, Part 1", "result": "9 (30.0) n (%)"},
      {"measurement": "Seated AOBP DBP change from baseline (CFB), Mean", "setting": "Week 8", "result": "−5.68", "unit": "mmHg"},
      {"measurement": "Seated AOBP DBP, Mean", "setting": "Week 8", "result": 72.17, "unit": "mmHg"},
      {"measurement": "Seated AOBP SBP change from baseline (CFB), Mean", "setting": "Week 8", "result": "−11.20", "unit": "mmHg"},
      {"measurement": "Seated AOBP SBP, Mean", "setting": "Week 8", "result": 129.30, "unit": "mmHg"}
    ]}
  ]
}
